Test results as given in patent publication US11149035B2, “Chemical compounds as H—PGDS inhibitors” (GlaxoSmithKline Intellectual Property Development Limited, priority 2017, dated 2021).

These compounds were tested against T1, haematopoietic prostaglandin D synthase (H-PGDS) (Homo sapiens, UniProt O60760) (assay: H-PGDS RapidFire high throughput mass spectrometry assay (conversion of PGH2 to PGD2)). Details: 10 nM H-PGDS, PGH2 formed in situ by COX-2 from arachidonic acid; four parameter curve fit; read-out: Potency Range (mean pIC50) (converted).
T1 construct: Full length human H-PGDS cDNA (Invitrogen Ultimate ORF IOH13026) was amplified by PCR; 6-His (N); TEV protease cleavage site (N); made in house; host or cells: E. coli BL21 (DE3*)
Format: biochemical
Experimental: The H-PGDS RapidFire™ mass spectrometric assay monitors conversion of prostaglandin H2 (PGH2) to prostaglandin D2 (PGD2) by haematopoietic prostaglandin D synthase (H-PGDS). In the assay format described here, the substrate (PGH2) is formed in situ by the action of cyclooxygenase-2 on arachidonic acid. This first step is set up to be fast, and generates a burst of PGH2 at ˜10 μM. The PGH2 is then further converted to PGD2 by the H-PGDS enzyme. […] Plates are then read on the RapidFire™ high throughput solid phase extraction system (Agilent) which incorporates a solid phase extraction step coupled to a triple quadrupole mass spectrometer (AB SCIEX). Relative levels of PGD2 and PGF2α, which acts as a surrogate for substrate, are measured and a percent conversion calculated. Inhibitors are characterised as compounds which lower the conversion of PGH2 to PGD2.
Full length human H-PGDS cDNA (Invitrogen Ultimate ORF IOH13026) was amplified by PCR with the addition of a 5′ 6-His tag and TEV protease cleavage site. The PCR product was digested with NdeI and XhoI and ligated into pET22b+ (Merck Novagen®). Expression was carried out in E. coli strain BL21 (DE3*) using auto-induction Overnight Express™ Instant TB medium (Merck Novagen®) supplemented with 1% glycerol. The culture was first grown at 37° C. and the temperature was reduced to 25° C. when OD600 reached 2.0. Cells were harvested by centrifugation after a further 18 hours. 10 g of E. coli cell pellet was suspended to a total volume of 80 mL in lysis buffer (20 mM Tris-Cl pH 7.5, 300 mM NaCl, 20 mM imidazole, 5 mM β-mercaptoethanol, 10% glycerol). 1 mg/mL protease inhibitors (Protease Inhibitor Cocktail Set III, Merck Calbiochem®) and 1 mg/mL lysozyme were added to the cell suspension. The suspension was then sonicated for 5 min (UltraSonic Processor VCX 750, Cole-Parmer Instrument Co.) with a micro probe (50% amplitude, 10 sec on/off) and then centrifuged at 100,000 g for 90 minutes (at 4° C.). The supernatant was loaded onto a Ni-NTA HiTrap column (5 mL, GE Healthcare, pre-equilibrated in lysis buffer). The column was washed with 10 column volumes of lysis buffer and eluted with lysis buffer containing 500 mM imidazole. The pooled protein peak fractions were concentrated using a 10 kDa centrifugal filter at 3500 g and 4° C. (Amicon Ultra-15 centrifugal filter unit with Ultracel-10 membrane from Millipore). Further purification of the concentrated protein was carried out using gel filtration chromatography on a HiLoad 26/600 Superdex 75 preparative grade column (GE Healthcare Life Sciences) using 50 mM Tris pH 7.5, 50 mM NaCl, 1 mM dithiothreitol, 1 mM MgCl2. Fractions containing the protein were pooled, concentrated as described above, and stored at −80° C.
The full length human COX-2 gene (accession number L15326) was amplified by PCR to generate an EcoRI—HindIII fragment containing an in-frame FLAG tag. This was subcloned into pFastBac 1 (Invitrogen). The COX-2 FLAG plasmid was recombined into the baculovirus genome according to the BAC-to-BAC protocol described by Invitrogen. Transfection into Spodoptera frugiperda (Sf9) insect cells was performed using Cellfectin (Invitrogen), according to the manufacturer's protocol. Super Sf9 cells were cultured in EX420 media (SAFC Biosciences) to a density of approximately 1.5×10^6 cells/mL within a wave bioreactor. Recombinant virus was added at a Multiplicity of Infection (MOI) of 5 and the culture was allowed to continue for 3 days. Cells were harvested using a continuous feed centrifuge run at 2500 g at a rate of approximately 2 L/min with cooling. The resultant cell slurry was re-centrifuged in pots (2500 g, 20 min, 4° C.) and the cell paste was stored at −80° C. 342 g of cell paste was re-suspended to a final volume of 1600 mL in a buffer of 20 mM Tris-Cl pH 7.4, 150 mM NaCl, 0.1 mM EDTA, 1.3% w/v n-octyl-[…] containing 20 Complete EDTA-free Protease Inhibitor Cocktail tablets (Roche Applied Science). […]

T1 sequence (O60760 whole entry): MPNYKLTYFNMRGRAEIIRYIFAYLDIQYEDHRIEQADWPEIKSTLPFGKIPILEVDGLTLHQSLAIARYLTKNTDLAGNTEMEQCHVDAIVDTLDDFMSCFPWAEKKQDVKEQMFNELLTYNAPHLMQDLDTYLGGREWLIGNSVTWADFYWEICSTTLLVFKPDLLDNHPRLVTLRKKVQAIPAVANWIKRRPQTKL

Structure (SMILES) | IC50
CC1CCN1c1ccc2cc(C(=O)N[C@H]3CC[C@H](C(C)(C)O)CC3)cnc2n1 (mixture of isomers) [Example 7, N-(trans-4-(2-Hydroxypropan-2-yl)cyclohexyl)-7-(2-methylazetidin-1-yl)-1,8-naphthyridine-3-carboxamide] | 10 to 79.4 nM
CC1CCN1c1cc2ncc(C(=O)N[C@H]3CC[C@H](C(C)(C)O)CC3)cc2cn1 (mixture of isomers) [Example 11, N-(trans-4-(2-Hydroxypropan-2-yl)cyclohexyl)-7-(2-methylazetidin-1-yl)-1,6-naphthyridine-3-carboxamide] | 10 to 79.4 nM
CC(C)(O)C1CC2(CC(NC(=O)c3cnc4cc(C5CC5)ncc4c3)C2)C1 (racemic) [Example 34, 7-Cyclopropyl-N-(6-(2-hydroxypropan-2-yl)spiro[3.3]heptan-2-yl)-1,6-naphthyridine-3-carboxamide] | < 10 nM
CC(N[C@H]1CC[C@H](NC(=O)c2cnc3cc(C4CC4)ncc3c2)CC1)C(F)F (mixture of isomers) [Example 39, 7-cyclopropyl-N-(trans-4-((1,1-difluoropropan-2-yl)amino)cyclohexyl)-1,6-naphthyridine-3-carboxamide] | 10 to 79.4 nM
CC(C)(O)C1CC2(CC(NC(=O)c3cnc4nc(C5CC5)ccc4c3)C2)C1 (racemic) [Example 49, 7-Cyclopropyl-N-(6-(2-hydroxypropan-2-yl)spiro[3.3]heptan-2-yl)-1,8-naphthyridine-3-carboxamide] | 10 to 79.4 nM
CC(N[C@H]1CC[C@H](NC(=O)c2cnc3nc(C4CC4)ccc3c2)CC1)C(F)F (mixture of isomers) [Example 57, 7-Cyclopropyl-N-(trans-4-((1,1-difluoropropan-2-yl)amino)cyclohexyl)-1,8-naphthyridine-3-carboxamide] | 10 to 79.4 nM
CC(C)(O)[C@H]1CC[C@H](NC(=O)c2cnc3ccncc3c2)CC1 [Example 1, N-(trans-4-(2-Hydroxypropan-2-yl)cyclohexyl)-1,6-naphthyridine-3-carboxamide] | 1260 to 10000 nM
CC(C)(O)[C@H]1CC[C@H](NC(=O)c2cnc3ncccc3c2)CC1 [Example 2, N-(trans-4-(2-Hydroxypropan-2-yl)cyclohexyl)-1,8-naphthyridine-3-carboxamide] | 1260 to 10000 nM
CC(C)(O)[C@H]1CC[C@H](NC(=O)c2cnc3cc(N4CC(F)C4)ncc3c2)CC1 [Example 3, 7-(3-Fluoroazetidin-1-yl)-N-(trans-4-(2-hydroxypropan-2-yl)cyclohexyl)-1,6-naphthyridine-3-carboxamide] | 10 to 79.4 nM
CC(C)(O)[C@H]1CC[C@H](NC(=O)c2cnc3cc(N4CCC4)ncc3c2)CC1 [Example 4, 7-(Azetidin-1-yl)-N-(trans-4-(2-hydroxypropan-2-yl)cyclohexyl)-1,6-naphthyridine-3-carboxamide] | < 10 nM
CC(C)(O)[C@H]1CC[C@H](NC(=O)c2cnc3nc(N4CCC4)ccc3c2)CC1 [Example 5, 7-(Azetidin-1-yl)-N-(trans-4-(2-hydroxypropan-2-yl)cyclohexyl)-1,8-naphthyridine-3-carboxamide] | < 10 nM
CC(C)(O)[C@H]1CC[C@H](NC(=O)c2cnc3nc(N4CC(F)C4)ccc3c2)CC1 [Example 6, 7-(3-Fluoroazetidin-1-yl)-N-(trans-4-(2-hydroxypropan-2-yl)cyclohexyl)-1,8-naphthyridine-3-carboxamide] | 10 to 79.4 nM
C[C@@H]1CCN1c1ccc2cc(C(=O)N[C@H]3CC[C@H](C(C)(C)O)CC3)cnc2n1 [Example 8, N-(trans-4-(2-Hydroxypropan-2-yl)cyclohexyl)-7-((R)-2-methylazetidin-1-yl)-1,8-naphthyridine-3-carboxamide] | 100 to 1000 nM
C[C@H]1CCN1c1ccc2cc(C(=O)N[C@H]3CC[C@H](C(C)(C)O)CC3)cnc2n1 [Example 9, N-(trans-4-(2-Hydroxypropan-2-yl)cyclohexyl)-7-((S)-2-methylazetidin-1-yl)-1,8-naphthyridine-3-carboxamide] | < 10 nM
CC(C)(O)[C@H]1CC[C@H](NC(=O)c2cnc3cc(C4CC4)ncc3c2)CC1 [Example 10, 7-Cyclopropyl-N-((trans)-4-(2-hydroxypropan-2-yl)cyclohexyl)-1,6-naphthyridine-3-carboxamide] | 10 to 79.4 nM
C[C@@H]1CCN1c1cc2ncc(C(=O)N[C@H]3CC[C@H](C(C)(C)O)CC3)cc2cn1 [Example 12, N-(trans-4-(2-Hydroxypropan-2-yl)cyclohexyl)-7-((R)-2-methylazetidin-1-yl)-1,6-naphthyridine-3-carboxamide] | 100 to 1000 nM
C[C@H]1CCN1c1cc2ncc(C(=O)N[C@H]3CC[C@H](C(C)(C)O)CC3)cc2cn1 [Example 13, N-(trans-4-(2-Hydroxypropan-2-yl)cyclohexyl)-7-((S)-2-methylazetidin-1-yl)-1,6-naphthyridine-3-carboxamide] | < 10 nM
CC(C)(O)[C@H]1CC[C@H](NC(=O)c2cnc3cc(NC4CC4)ncc3c2)CC1 [Example 14, 7-(Cyclopropylamino)-N-(trans-4-(2-hydroxypropan-2-yl)cyclohexyl)-1,6-naphthyridine-3-carboxamide] | 10 to 79.4 nM
C[C@]1(O)C[C@@H](NC(=O)c2cnc3cc(N4CCC4)ncc3c2)C1 [Example 15, 7-(Azetidin-1-yl)-N-((1s,3s)-3-hydroxy-3-methylcyclobutyl)-1,6-naphthyridine-3-carboxamide] | 10 to 79.4 nM
CC(C)(O)[C@H]1CC[C@H](NC(=O)c2cnc3nc(NCC(F)F)ccc3c2)CC1 [Example 16, 7-((2,2-Difluoroethyl)amino)-N-(trans-4-(2-hydroxypropan-2-yl)cyclohexyl)-1,8-naphthyridine-3-carboxamide] | 100 to 1000 nM
CC(C)(O)[C@H]1CC[C@H](NC(=O)c2cnc3nc(NCC(F)(F)F)ccc3c2)CC1 [Example 17, N-(trans-4-(2-Hydroxypropan-2-yl)cyclohexyl)-7-((2,2,2-trifluoroethyl)amino)-1,8-naphthyridine-3-carboxamide] | 100 to 1000 nM
C[C@]1(O)C[C@@H](NC(=O)c2cnc3nc(N4CCC4)ccc3c2)C1 [Example 18, 7-(Azetidin-1-yl)-N-((1s,3s)-3-hydroxy-3-methylcyclobutyl)-1,8-naphthyridine-3-carboxamide] | 100 to 1000 nM
O=C(N[C@H]1CCNC1=O)c1cnc2nc(N3CCC3)ccc2c1 [Example 19, (S)-7-(Azetidin-1-yl)-N-(2-oxopyrrolidin-3-yl)-1,8-naphthyridine-3-carboxamide] | 10 to 79.4 nM
O=C(N[C@H]1CCNC1=O)c1cnc2cc(N3CCC3)ncc2c1 [Example 20, (S)-7-(Azetidin-1-yl)-N-(2-oxopyrrolidin-3-yl)-1,6-naphthyridine-3-carboxamide] | 10 to 79.4 nM
C[C@H]1CCN1c1cc2ncc(C(=O)N[C@H]3CCNC3=O)cc2cn1 [Example 22, 7-((S)-2-Methylazetidin-1-yl)-N—((S)-2-oxopyrrolidin-3-yl)-1,6-naphthyridine-3-carboxamide] | 10 to 79.4 nM
C[C@H]1CCN1c1cc2ncc(C(=O)N[C@H]3C[C@@](C)(O)C3)cc2cn1 [Example 23, N-((1s,3R)-3-Hydroxy-3-methylcyclobutyl)-7-((S)-2-methylazetidin-1-yl)-1,6-naphthyridine-3-carboxamide] | 100 to 1000 nM
